Legend:
[1] = molecular target: T1, HIV-1 protease (Q7S mutant form) (Human immunodeficiency virus type 1 group M subtype B, UniProt P04585, Q495S); assay: HIV-1 Protease RET assay; assay type: biochemical; details: Ave. Ki (nM), RET assay, Q7S enzyme, Morrison tight binding fit
T1 construct: made in house
Outline: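 Ki values fitted with the Morrison tight-binding equation from steady-state RET cleavage (ex 340, em 490 nm) of 5 μM RE(EDANS)SQNYPIVQK(DABCYL)R. Buffer pH 4.8 acetate, 1M NaCl, 5 mM DTT, 1 mg/ml BSA, 10% DMSO; 2 nM Q7S mutant dimer, 37 °C, 12 min.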

[2] = system: HIV-1 (HIV-1 RF, HIV-1 NL4-3) in CEM-SS / MT-2 cells; assay: Cytopathic effect (CPE) inhibition assay (XTT/MTT dye reduction); assay type: cell-based; details: Human immunodeficiency virus 1, NL43; read-out: Ave CPE EC50
Outline: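 Readout is XTT reduction (A450, 4 h) after six days of culturing virus-infected (moi 0.025–0.819) or mock-infected CEM-SS/MT-2 cells, 2×10^4 per well, with half-log compound series. Antiviral EC50 and cytotoxic CC50 are relative to uninfected compound-free cells. Therapeutic index is CC50 divided by EC50.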

[3] = system: 461, 84V, 90M virus; assay: Phenotypic susceptibility assay at Virologic, Inc.; assay type: cell-based, HIV-1; details: Human immunodeficiency virus 1, read-out: EC50 or IC50 (mM), values with asterisk (IC50)
Procedure: Compounds were tested in phenotypic susceptibility assays at Virologic, Inc., (See Petropoulos C. J., Parkin N. T., Limoli K. L., Lie Y. S., Wrin T., Huang W., Tian H., Smith D., Winslow G. A., Capon D J, Whitcomb J M. 2000, “A novel phenotypic drug susceptibility assay for human immunodeficiency virus type 1,” Antimicrob Agents Chemother 44(4):920–928) or using the assay described here. MT-2 cells were infected with either HIV-1 NL4-3 or HIV-1 NL4-3([…]) and incubated in the presence of serial 0.5 log dilutions of test compounds. Three days later, culture supernatants were collected and virus production, as determined by p24 ELISA, was assayed. Percent inhibition was calculated as p24 concentration in compound-treated samples as compared to infected, compound-free controls. Inhibition of viral replication is determined by measuring reduction in HIV p24 present in the culture supernatant, using a Beckman-Coulter p24HIV-1 Ag EIA kit and following the supplied protocol. Absorbance is read on a MRX microplate reader (Dynex Technologies). The EC50 was calculated as the concentration of compound that effected a decrease in the p24 production by infected, compound-treated cells to 50% of that produced by infected, compound-free cells.

| Compound | melting point [°C] | Ki [1] [nM] | EC50 [2] [nM] | IC50 [3] [nM] |
| --- | --- | --- | --- | --- |
| COc1cccc(CNC(=O)[C@H]2N(C(=O)[C@@H](O)C(Cc3ccccc3)NC(=O)c3cccc(O)c3C)CSC2(C)C)c1 (single isomer, unassigned) | 108 to 110 | – | – | – |
| Cc1c(O)cccc1C(=O)N[C@@H](Cc1ccccc1)[C@H](O)C(=O)N1CSC(C)(C)[C@H]1C(=O)N[C@H]1CCCc2ccccc21 [Example A1, 3-[2-Hydroxy-3-(3-hydroxy-2-methyl-benzoylamino)-4-phenyl-butyryl]-5,5-dimethyl-thiazolidine-4-carboxylic acid (1,2,3,4-tetrahydro-naphthalen-1-yl)-amide] | 125 to 126 | 0.21 | 29 | – |
| Cc1c(O)cccc1C(=O)N[C@@H](Cc1ccccc1)[C@H](O)C(=O)N1CSC(C)(C)[C@H]1C(=O)N[C@@H]1CCCc2ccccc21 [Example A4, 3-[2-Hydroxy-3-(3-hydroxy-2-methyl-benzoylamino)-4-phenyl-butyryl]-5,5-dimethyl-thiazolidine-4-carboxylic acid (1,2,3,4-tetrahydro-naphthalen-1-yl)-amide] | 123 to 125 | 2.2 | 270 | – |
| Cc1c(O)cccc1C(=O)N[C@@H](Cc1ccccc1)[C@H](O)C(=O)N1CSC(C)(C)[C@H]1C(=O)NC[C@H]1CCCO1 [Example A12, (R)-3-((2S,3S)-2-Hydroxy-3-{[1-(3-hydroxy-2-methyl-phenyl)-methanoyl]-amino}-4-phenyl-butanoyl)-5,5-dimethyl-thiazolidine-4-carboxylic acid [(R)-1-(tetrahydro-furan-2-yl)methyl]-amide] | 105 to 107 | 5.5 | 127 | – |
| Cc1c(O)cccc1C(=O)N[C@@H](Cc1ccccc1)[C@H](O)C(=O)N1CSC(C)(C)[C@H]1C(=O)N[C@@H]1CCOc2ccccc21 [Example A16, (R)-3-((2S,3S)-2-Hydroxy-3-{[1-(3-hydroxy-2-methyl-phenyl)-methanoyl]-amino}-4-phenyl-butanoyl)-5,5-dimethyl-thiazolidine-4-carboxylic acid (R)-chroman4-ylamide] | 135 to 136 | 0.43 | 254 | – |
| Cc1c(O)cccc1C(=O)N[C@@H](Cc1ccccc1)[C@H](O)C(=O)N1CSC(C)(C)[C@H]1C(=O)N[C@H]1CCOc2ccccc21 [Example A17, (R)-3-((2S,3S)-2-Hydroxy-3-{[1-(3-hydroxy-2-methyl-phenyl)-methanoyl]-amino}-4-phenyl-butanoyl)-5,5-dimethyl-thiazolidine-4-carboxylic acid (S)-chroman-4-ylamide] | 135 to 136 | < 0.1 | 24 | 49 |
| Cc1c(O)cccc1C(=O)N[C@@H](Cc1ccccc1)[C@H](O)C(=O)N1CSC(C)(C)[C@H]1C(=O)N[C@@H]1CCSc2ccccc21 [Example A18, (R)-3-((2S,3S)-2-Hydroxy-3-{[1-(3-hydroxy-2-methyl-phenyl)-methanoyl]-amino}-4-phenyl-butanoyl)-5,5-dimethyl-thiazolidine-4-carboxylic acid (R)-thiochroman-4-ylamide] | 125 to 127 | 0.3 | 27 | – |
| Cc1c(O)cccc1C(=O)N[C@@H](Cc1ccccc1)[C@H](O)C(=O)N1CSC(C)(C)[C@H]1C(=O)N[C@H]1CCSc2ccccc21 [Example A19, (R)-3-((2S,3S)-2-Hydroxy-3-{[1-(3-hydroxy-2-methyl-phenyl)-methanoyl]-amino}-4-phenyl-butanoyl)-5,5-dimethyl-thiazolidine-4-carboxylic acid (S)-thiochroman-4-ylamide] | 125 to 127 | 0.21 | 15 | – |
| Cc1c(O)cccc1C(=O)N[C@@H](Cc1ccccc1)[C@H](O)C(=O)N1CSC(C)(C)[C@H]1C(=O)N[C@@H]1CCc2ccccc21 [Example A29, (R)-3-((2S,3S)-2-Hydroxy-3-{[1-(3-hydroxy-2-methyl-phenyl)-methanoyl]-amino}-4-phenyl-butanoyl)-5,5-dimethyl-thiazolidine4-carboxylic acid (R)-indan-1-ylamide] | 128 to 130 | 0.31 | 118 | – |
| Cc1c(O)cccc1C(=O)N[C@@H](Cc1ccccc1)[C@H](O)C(=O)N1CSC(C)(C)[C@H]1C(=O)N[C@@H]1C=CCCC1 [Example A32, (R)-3-((2S,3S)-2-Hydroxy-3-{[1-(3-hydroxy-2-methyl-phenyl)-methanoyl]-amino}-4-phenyl-butanoyl)-5,5-dimethyl-thiazolidine-4-carboxylic acid (S)-cyclohex-2-enylamide] | 177 to 179 | < 0.1 | 12 | 55 |
| Cc1c(O)cccc1C(=O)N[C@@H](Cc1ccccc1)[C@H](O)C(=O)N1CSC(C)(C)[C@H]1C(=O)N[C@H]1CCc2ccccc21 [Example A35, (R)-3-((2S,3S)-2-Hydroxy-3-{[1-(3-hydroxy-2-methyl-phenyl)-methanoyl]-amino}-4-phenyl-butanoyl)-5,5-dimethyl-thiazolidine-4-carboxylic acid (S)-indan-1-ylamide] | 204 to 206 | < 0.1 | 16 | 41 |
| Cc1c(O)cccc1C(=O)N[C@@H](Cc1ccccc1)[C@H](O)C(=O)N1CSC(C)(C)[C@H]1C(=O)NC1CCC(C)CC1 (stereo partly drawn) [Example A36, (R)-3-((2S,3S)-2-Hydroxy-3-{[1-(3-hydroxy-2-methyl-phenyl)-methanoyl]-amino}-4-phenyl-butanoyl)-5,5-dimethyl-thiazolidine-4-carboxylic acid (4-methyl-cyclohexyl)-amide] | 192 to 194 | 0.78 | 343 | – |
| Cc1c(O)cccc1C(=O)N[C@@H](Cc1ccccc1)[C@H](O)C(=O)N1CSC(C)(C)[C@H]1C(=O)N[C@H]1C=CCCC1 [Example A38, (R)-3-((2S,3S)-2-Hydroxy-3-{[1-(3-hydroxy-2-methyl-phenyl)-methanoyl]-amino}-4-phenyl-butanoyl)-5,5-dimethyl-thiazolidine-4-carboxylic acid (R)-cyclohex-2-enylamide] | 193 to 195 | < 0.1 | 38 | – |
| CCCC(=O)N[C@@H](Cc1ccccc1)[C@H](O)C(=O)N1CSC(C)(C)[C@H]1C(=O)NCc1ccccc1C [Example B20, (R)-3-((2S,3S)-3-Butyrylamino-2-hydroxy-4-phenyl-butyryl)-5,5-dimethyl-thiazolidine-4-carboxylic acid 2-methyl-benzylamide] | – | 2.1 | 1560 | 2080 |
| C=CCNC(=O)[C@H]1N(C(=O)[C@@H](O)[C@H](Cc2ccccc2)NC(=O)c2cccc3c2CCN3)CSC1(C)C [Example B21, 2,3-Dihydro-1H-indole-4-carboxylic acid [(1S,2S)-3-((R)-4-allylcarbamoyl-5,5-dimethyl-thiazolidin-3-yl)-1-benzyl-2-hydroxy-3-oxo-propyl]-amide] | – | 0.91 | 109 | 547 |
| Cc1cccc(C)c1OCC(=O)N[C@@H](Cc1ccccc1)[C@H](O)C(=O)N1CSC(C)(C)[C@H]1C(=O)N[C@H]1CCOc2ccccc21 [Example B30, (R)-3-{(2S,3S)-3-[2-(2,6-Dimethyl-phenoxy)-ethanoylamino]-2-hydroxy-4-phenyl-butanoyl}-5,5-dimethyl-thiazolidine-4-carboxylic acid (S)-chroman-4-ylamide] | 105 to 107 | 0.21 | 443 | – |
| CC1(C)SCN(C(=O)[C@@H](O)[C@H](Cc2ccccc2)NC(=O)O[C@H]2CCOC2)[C@@H]1C(=O)N[C@H]1CCCc2ccccc21 [Example B33, ((1S,2S)-1-Benzyl-3-{(R)-5,5-dimethyl-4-[(S)-(1,2,3,4-tetrahydro-naphthalen-1-yl)carbamoyl]-thiazolidin-3-yl}-2-hydroxy-3-oxo-propyl)-carbamic acid (S)-(tetrahydro-furan-3-yl) ester] | 103 to 105 | < 0.1 | 45 | 604 |

From patent publication US7094909B2, “HIV protease inhibitors, compositions containing the same, their pharmaceutical uses and materials for their synthesis” (priority 2001, dated 2006)
